According to patent US20120283269A1, “Method and Compositions for Suppression of Aging” (HEALTH RESEARCH INC., priority 2009, published 2012):
Entries after “also recorded” stand apart in the source; their conditions may differ.

How the values were obtained:
Assay type in all cases: cell-based, human
[1] = test system: HT-p21-a cells, HT-p16 cells; assay: Preservation of proliferative potential in IPTG-treated HT-p21-a and HT-p16 cells, nutlin-3a versus nutlin-3b; conditions: IPTG-regulated p16- and p21-expressing cells
From the text: FIG. 7. […] Then medium was changed and cells were counted after 8 days. b. […] Then medium was changed and cells were counted after 5 days.
(§1) Cell lines and reagents. HT-p21-9 and HT-p21-a cells are derivatives of HT1080 human fibrosarcoma cells, where p21 expression can be turned on or off using isopropyl-thio-galactosidase (IPTG) (7, 16, 28, 29, 36). […] HT-p16 cells are derivatives of HT1080 cells in which p16 expression can be turned on or off using IPTG (16, 36). WI-38-Tert, WI-38 are fibroblasts immortalized by telomerase. HT-p21-GSE56 cells: p53 inhibiting peptide GSE56 (18) was introduced into HT1080 p21-9 cells via a retroviral vector LXSE (37). Cells were grown in high glucose DMEM with 10% FC2 serum. WI-38-tert cells were grown in low glucose DMEM with 10% FCS. Rapamycin was obtained from LC Laboratories (Woburn, Mass.). IPTG (final concentration of 50 μg/ml) and FC2 were obtained from Sigma-Aldrich (St. Louis, Mo.).

HT-p21-9 cells [2] = assay: Metabolic labeling, [35S]methionine/cysteine incorporation (protein synthesis); conditions: IPTG-treated cells, 24 h treatment
Method: (§2) FIG. 3. […] Immunoblot. […] Immunoblot was performed as described in the methods for Example 1 below. b. Immunoblot. […] Immunoblot was performed as described in Methods. c. […] After 3 days, cells were washed and incubated in fresh medium w/o drugs for an additional 7 days. Cells were counted and are shown as percent of IPTG alone. d. […] Cells were treated with either IPTG alone (black bars) or IPTG plus rapamycin (white bars) or plus nutlin-3a (grey bars). On days 2, 3, 4, and 5 cells were lysed and protein content per well was measured. […] Cells were labeled with [^35S]methionine/cysteine as described in Methods for Example 1.
FIG. 8. Effects of IPTG and 500 nM rapamycin on protein synthesis ([^35S]methionine/cysteine incorporation). Cells were treated as indicated for 24 hrs and then labeled with [^35S]methionine/cysteine as described in Methods for Example 1.
Metabolic labeling. HT-p21-9 cells were seeded at 25,000 cells/well in 12-well plates. On the next day, cells were treated with drugs. After 24 h, cells were labeled with 30 μCi [^35S]methionine/cysteine (Amersham) per ml of Met/Cys-free Dulbecco's modified Eagle's medium (Invitrogen) for 1 h at 37° C. Cells were washed with PBS and lysed in 1% SDS, with 0.5% BSA. […] Filters were air-dried and counted using liquid scintillation counter.

HT-p21-9 cells [3] = assay: Senescent morphology and beta-Gal staining of HT-p21-9 cells (IPTG-induced p21); conditions: for cell divisions / arrest in the presence of nutlin-3a alone: nutlin-3a (10 μM), low cell density
Method: FIG. 1. Nutlin-3a converted senescence into quiescence. a. […] Cells were stained for beta-Gal and photographed (original magnification ×400). Bar scale—50 μm. b. […] Then cells were cultured in fresh medium until colonies become visible. Dishes were stained with crystal violet and photographed on day 4 (control) or on day 9 (IPTG- and nutlin-3a-treated).c. […] Before wash. Live HT-p21-9 cells (expressing GFP for better visualization of live cells) were photographed (original magnification ×100) under blue light. 3 d wash. Three days after drug removal. 9 d wash. Nine days after drug removal, cells were stained with crystal violet and photographed. d. Nutlin-3a dose response. […] After 3 days, the plates were washed and cells were incubated for an additional 9 days in fresh medium, stained with crystal violet and photographed. e. Colonies per dish. […] After 3 days, the plates were washed and cells were incubated for an additional 9 days in fresh medium. Colonies were counted and results are shown as percent of control (IPTG alone). f. Cells per dish. As in panel e. Cells were trypsinized and counted. Results are shown as percent of control (IPTG alone).
FIG. 5. Senescent versus quiescent morphology. […] Live cells, visualized with GFP (×100). In control, cells underwent 3 divisions, forming micro-colony.
as §1
(§3) Beta-galactosidase staining Beta-gal staining was performed using Senescence-galactosidase staining kit (Cell Signaling Technology).

HT-p21-GSE56 cells = assay: Proliferation, senescence and proliferative potential of HT-p21-GSE56 cells (p53 function blocked); conditions: 3 days, washed, fresh medium
Method: Cell lines and reagents. […] WI-38-Tert, WI-38 are fibroblasts immortalized by telomerase. […] Cells were grown in high glucose DMEM with 10% FC2 serum. WI-38-tert cells were grown in low glucose DMEM with 10% FCS. Rapamycin was obtained from LC Laboratories (Woburn, Mass.). IPTG (final concentration of 50 μg/ml) and FC2 were obtained from Sigma-Aldrich (St. Louis, Mo.).

HT-p21-9 cells [4] = assay: Protein content per cell (cellular hypertrophy), IPTG-treated HT-p21-9 cells; conditions: days 2-5
Method: as §2

mTOR pathway = assay: Immunoblot for p53, p-S6, p-S6K in WI-38-tert fibroblasts
Method: (§4) FIG. 4. […] HT-p21-a cells were treated with IPTG and infected with Ad-p53. After 3 days, cells were photographed (original magnification ×200): Upper panel. Under blue light to visualize cells expressing p53 (green cells). Lower panel. Under visible light to visualize all cells. Red arrows indicate cells lacking p53 expression. All of these cells show large, flat cell morphology. Green arrows indicate cells expressing p53. b-d. […] After 1 day, cells were lysed and immunoblot was performed as described in Methods for Example 1. c. […] Cells were then stained for beta-Gal activity and microphotographed. Scale bar—50 μm.d. […] Cells were then trypsinized and counted. […] Results are shown as percent of control.
FIG. 12. […] Immunoblot for p53, p-S6, p-S6K, S6 and actin was performed as described in Methods for Example 1.
Immunoblot analysis. Proteins were separated on 4-15% gradient Tris-HCl gels (Bio-Rad). The following antibodies were used: mouse anti-actin from Santa Cruz Biotechnology, rabbit anti-phospho-S6 (Ser240/244) and (Ser235/236), mouse anti-S6, mouse anti-phospho-p70 S6 kinase (Thr389), mouse anti-p21 and anti-p53, rabbit anti-phospho-4E-BP1 (Thr37/46) from Cell Signaling; mouse anti-4E-BP1 from Invitrogen, mouse anti-p53 (Ab-6) from Calbiochem.

WI-38-tert cells = assay: Senescence / quiescence in WI-38-tert fibroblasts
Method: as §4
FIG. 11. Effects of Ad-p21 and Ad-p53 on senescent morphology in WI-38-tert fibroblasts. WI-38-tert cells were infected with either p21-expressing adenovirus (Ad-p21) or p53-expressing adenovirus (Ad-p53) or both. After 3 days, cells were stained for beta-Gal.
as §1, §3

[5] = 200 μM H2O2 30 min, then 10 μM nutlin-3a, 1 day

## COc1ccc(C2=N[C@@H](c3ccc(Cl)cc3)[C@@H](c3ccc(Cl)cc3)N2C(=O)N2CCNC(=O)C2)c(OC(C)C)c1 [nutlin-3a]
[1]
  conversion of senescence into quiescence (preservation of proliferative potential): preservation of proliferative potential
HT-p21-9 cells [2]
  protein synthesis ([35S]methionine/cysteine incorporation): inhibited ^35S-methionine/cysteine incorporation in IPTG-treated HT-p21-9 cells in a dose-dependent manner
HT-p21-9 cells [3]; 10 μM nutlin-3a alone, 3 days
  cell morphology and SA-beta-Gal staining: remained small, lean and SA-beta-Gal-negative
HT-p21-9 cells [3]; IPTG plus compound (10 μM nutlin-3a), 3 days
  senescent morphology caused by IPTG: prevented the senescent morphology caused by IPTG; also recorded: suppressed senescence in IPTG-treated HT-p21-9 cells only
HT-p21-9 cells [3]; IPTG plus nutlin-3a
  cytostatic effect of IPTG: did not abrogate the cytostatic effect of IPTG
HT-p21-9 cells [3]; 3 days
  cell divisions / arrest in the presence of nutlin-3a alone: underwent one division and did not proliferate further
HT-p21-9 cells [3]; 3 days, listed as Nutlin-3a
  cell divisions / arrest in the presence of nutlin-3a alone: arrested after one division with normal cell morphology
HT-p21-GSE56 cells
  colony formation and proliferative potential (PP) in IPTG-treated HT-p21-GSE56 cells: did not preserve colony formation and proliferative potential (PP)
HT-p21-9 cells [4]
  protein content per cell: decreased the protein content per cell
mTOR pathway; [5]
  S6 phosphorylation in H2O2-treated WI-38-tert cells: inhibited S6 phosphorylation
  p53 level in H2O2-treated WI-38-tert cells: induced p53
mTOR pathway; concentrations that induce p53, 24 hr
  S6K and S6 phosphorylation: inhibited S6K and S6 phosphorylation
WI-38-tert cells; 10 μM nutlin-3a 3 days, washed, 3 more days, beta-Gal
  senescence induced by H2O2: suppressed senescence induced by H2O2
WI-38-tert cells; 10 μM nutlin-3a 3 days, washed, 6 more days
  proliferative potential in H2O2-treated cells: partially preserved proliferative potential
WI-38-tert cells; compound alone
  type of arrest in WI-38-tert cells: caused quiescence
